Results taken from publication PMC12288460, “The Agrobacterium fabrum efflux pump PecM is produced in response to the plant exudate 4-hydroxybenzaldehyde to avoid disruption of central metabolism” (Journal of Bacteriology, 2025).

Target: T1, PecS (Agrobacterium fabrum, UniProt Q7D1T4)
T1 construct: full length, N-terminal His6-tag kept (pET100), E. coli BL21(DE3)pLysS; 18,923 Da tagged; dimer by known biology of MarR family
Experiment: DNase I footprinting of pecS-pecM DNA, loss of PecS protection
Conditions: 86 nM PecS, 250 mM Tris pH 8.0, 100 mM NaCl, room temperature, relief of DNA binding

T1 sequence (Q7D1T4 entry or part of it): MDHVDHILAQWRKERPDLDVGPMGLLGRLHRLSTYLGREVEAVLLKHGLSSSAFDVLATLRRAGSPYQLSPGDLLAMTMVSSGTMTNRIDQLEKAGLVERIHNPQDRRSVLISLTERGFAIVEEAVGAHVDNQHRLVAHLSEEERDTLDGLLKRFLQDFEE

Structure (SMILES)	DNase I footprinting of pecS-pecM DNA, loss of PecS protection (2.5 mM urate (dissolved in 0.4 M NaOH))	DNase I footprinting of pecS-pecM DNA, loss of PecS protection (10 mM xanthine (dissolved in 0.4 M NaOH))
O=c1[nH]c(=O)c2[nH]c(=O)[nH]c2[nH]1 [urate]	This result indicates a direct interaction between these purines and PecS	
O=c1[nH]c(=O)c2[nH]cnc2[nH]1 [xanthine]		This result indicates a direct interaction between these purines and PecS
